According to paper PMC10688820 (Microbiome Research Reports, 2023):
Like-named read-outs stand apart in the source and are kept apart here. One block for each compound: values may come before it.

Key:
[1] = target: BiBga42A wild-type (WT) enzyme, glycoside hydrolase family 42 β-galactosidase from Bifidobacterium longum subsp. infantis ATCC 15697 (Bifidobacterium longum subsp. infantis ATCC 15697); experiment: crystal structure; hanging drop vapor diffusion, 20 °C, 20 mg/mL protein; trimer seen by a crystallographic 3-fold axis (WT-GOL, E318S-LNT) or within the asymmetric unit (E160A/E318A-Gal)
BiBga42A [2] = target: T1, BiBga42A (Bifidobacterium longum, UniProt Z9E2X9H8H4, A160E/M262G/A318E, form not given); experiment: coupled colorimetric Gal release assay (Thio-NADH, […] nm); assay type: biochemical; details: 100 mM citrate-phosphate pH 6.5, 37 °C, 12.5 mM MgCl2 (coupling mix); read-out: LNT
T1 construct: C-terminal hexahistidine tag, pET23b, expressed in E. coli BL21 (DE3) ΔlacZ; GH42; homotrimer, active site completed by W200 and F221 of neighbouring subunit

BiBga42A [3] = target: T2, BiBga42A (Bifidobacterium longum, UniProt Z9E2X9H8H4, A160E/A318S, form not given); experiment: X-ray co-crystal structure, […] Å; assay type: binding; details: co-crystallised with 100 mM LNT, pH 5.8; subsites -1 to +3
T2 construct: C-terminal hexahistidine tag, pET23b, expressed in E. coli BL21 (DE3) ΔlacZ; GH42; homotrimer, active site completed by W200 and F221 of neighbouring subunit

BiBga42A [4] = target: T3, BiBga42A (Bifidobacterium longum, UniProt Z9E2X9H8H4, A160E/A318E/W326A, form not given); experiment: coupled colorimetric Gal release assay (Thio-NADH, […] nm); assay type: biochemical; details: 100 mM citrate-phosphate pH 6.5, 37 °C, 12.5 mM MgCl2 (coupling mix)
T3 construct: C-terminal hexahistidine tag, pET23b, expressed in E. coli BL21 (DE3) ΔlacZ; GH42; homotrimer, active site completed by W200 and F221 of neighbouring subunit

BiBga42A [5] = target: T4, BiBga42A (Bifidobacterium longum, UniProt Z9E2X9H8H4, A160E/A318E/R327A, form not given); experiment: as above; assay type: biochemical; details: 100 mM citrate-phosphate pH 6.5, 37 °C, 12.5 mM MgCl2 (coupling mix); read-out: LNT
T4 construct: C-terminal hexahistidine tag, pET23b, expressed in E. coli BL21 (DE3) ΔlacZ; GH42; homotrimer, active site completed by W200 and F221 of neighbouring subunit

BiBga42A [6] = target: T5, BiBga42A (Bifidobacterium longum, UniProt Z9E2X9H8H4, A160E/Y287F/A318E, form not given); experiment: as above; assay type: biochemical; details: 100 mM citrate-phosphate pH 6.5, 37 °C, 12.5 mM MgCl2 (coupling mix); read-out: LNT
T5 construct: C-terminal hexahistidine tag, pET23b, expressed in E. coli BL21 (DE3) ΔlacZ; GH42; homotrimer, active site completed by W200 and F221 of neighbouring subunit

BiBga42A [7] = target: T6, BiBga42A (Bifidobacterium longum, UniProt Z9E2X9H8H4, A160E/A318E, form not given); experiment: as above; assay type: biochemical; details: 100 mM citrate-phosphate pH 6.5, 37 °C, 12.5 mM MgCl2 (coupling mix)
T6 construct: C-terminal hexahistidine tag, pET23b, expressed in E. coli BL21 (DE3) ΔlacZ; GH42; homotrimer, active site completed by W200 and F221 of neighbouring subunit

BiBga42A [8] = target: T7, BiBga42A (Bifidobacterium longum, UniProt Z9E2X9H8H4, A160E/F221A/A318E, form not given); experiment: as above; assay type: biochemical; details: 100 mM citrate-phosphate pH 6.5, 37 °C, 12.5 mM MgCl2 (coupling mix); read-out: LNT
T7 construct: C-terminal hexahistidine tag, pET23b, expressed in E. coli BL21 (DE3) ΔlacZ; GH42; homotrimer, active site completed by W200 and F221 of neighbouring subunit

BiBga42A [9] = target: T8, BiBga42A (Bifidobacterium longum, UniProt Z9E2X9H8H4, R121A/A160E/A318E, form not given); experiment: as above; assay type: biochemical; details: 100 mM citrate-phosphate pH 6.5, 37 °C, 12.5 mM MgCl2 (coupling mix)
T8 construct: C-terminal hexahistidine tag, pET23b, expressed in E. coli BL21 (DE3) ΔlacZ; GH42; homotrimer, active site completed by W200 and F221 of neighbouring subunit

[10] = target: BiBga42A E160A/E318A double mutant (Bifidobacterium longum subsp. infantis ATCC 15697); experiment: crystal structure; hanging drop vapor diffusion, 20 °C, 20 mg/mL protein; trimer seen by a crystallographic 3-fold axis (WT-GOL, E318S-LNT) or within the asymmetric unit (E160A/E318A-Gal)
[11] = target: BiBga42A E318S mutant (Bifidobacterium longum subsp. infantis ATCC 15697); experiment: as above
BiBga42A [12] = target: T9, BiBga42A (Bifidobacterium longum, UniProt Z9E2X9H8H4, A318E, form not given); experiment: coupled colorimetric Gal release assay (Thio-NADH, […] nm); assay type: biochemical; details: 100 mM citrate-phosphate pH 6.5, 37 °C, 12.5 mM MgCl2 (coupling mix); read-out: pNP-Gal
T9 construct: C-terminal hexahistidine tag, pET23b, expressed in E. coli BL21 (DE3) ΔlacZ; GH42; homotrimer, active site completed by W200 and F221 of neighbouring subunit

BiBga42A [13] = target: T10, BiBga42A (Bifidobacterium longum, UniProt Z9E2X9H8H4, A160E, form not given); experiment: as above; assay type: biochemical; details: 100 mM citrate-phosphate pH 6.5, 37 °C, 12.5 mM MgCl2 (coupling mix); read-out: pNP-Gal
T10 construct: C-terminal hexahistidine tag, pET23b, expressed in E. coli BL21 (DE3) ΔlacZ; GH42; homotrimer, active site completed by W200 and F221 of neighbouring subunit

stoichiometry N [1]: 3
Compound: BiBga42A wild-type (WT) enzyme, glycoside hydrolase family 42 β-galactosidase from Bifidobacterium longum subsp. infantis ATCC 15697

Km (BiBga42A [2]): 3 mM
Km (BiBga42A [4]; read-out: LNT): 7.7 mM
Km (BiBga42A [5]): 11 mM
Km (BiBga42A [6]): 2.6 mM
Km (BiBga42A [7]; read-out: LNT): 2.7 mM
Km (BiBga42A [8]): 8.4 mM
Km (BiBga42A [9]; read-out: LNT): 16 mM
Compound: CC(=O)N[C@H]1[C@H](O[C@H]2[C@@H](O)[C@@H](CO)O[C@@H](O[C@H]3[C@H](O)[C@@H](O)C(O)O[C@@H]3CO)[C@@H]2O)O[C@H](CO)[C@@H](O)[C@@H]1O[C@@H]1O[C@H](CO)[C@H](O)[C@H](O)[C@H]1O (some centres unmarked) [LNT]
X-ray co-crystal structure, 2.2 Å (BiBga42A [3]): An LNT-complexed crystal was indeed obtained for the mutant

stoichiometry N [10]: 3
Compound: BiBga42A E160A/E318A double mutant (enzyme)

Km (BiBga42A [7]; read-out: LNB): 25 mM
Compound: CC(=O)N[C@H]1C(O)O[C@H](CO)[C@@H](O)[C@@H]1O[C@@H]1O[C@H](CO)[C@H](O)[C@H](O)[C@H]1O (some centres unmarked) [LNB]

stoichiometry N [11]: 3
Compound: BiBga42A E318S mutant (enzyme)

Km (BiBga42A [12]): 0.94 mM
Km (BiBga42A [13]): 1.4 mM
Km (BiBga42A [4]; read-out: pNP-Gal): 12 mM
Km (BiBga42A [7]; read-out: pNP-Gal): 0.57 mM
Km (BiBga42A [9]; read-out: pNP-Gal): 1.4 mM
Compound: O=[N+]([O-])c1ccc(O[C@@H]2O[C@H](CO)[C@H](O)[C@H](O)[C@H]2O)cc1 [pNP-Gal]
